{"source": "paper PMC8955854", "about": "“The Peptide Hormone CNMa Influences Egg Production in the Mosquito Aedes aegypti” (Insects, 2022)", "key": {"[1]": {"target": "AeCNMaR-1a (AAEL024199) (Aedes aegypti, UniProt A0A6I8U3V2)", "sequence (A0A6I8U3V2 entry or part of it)": "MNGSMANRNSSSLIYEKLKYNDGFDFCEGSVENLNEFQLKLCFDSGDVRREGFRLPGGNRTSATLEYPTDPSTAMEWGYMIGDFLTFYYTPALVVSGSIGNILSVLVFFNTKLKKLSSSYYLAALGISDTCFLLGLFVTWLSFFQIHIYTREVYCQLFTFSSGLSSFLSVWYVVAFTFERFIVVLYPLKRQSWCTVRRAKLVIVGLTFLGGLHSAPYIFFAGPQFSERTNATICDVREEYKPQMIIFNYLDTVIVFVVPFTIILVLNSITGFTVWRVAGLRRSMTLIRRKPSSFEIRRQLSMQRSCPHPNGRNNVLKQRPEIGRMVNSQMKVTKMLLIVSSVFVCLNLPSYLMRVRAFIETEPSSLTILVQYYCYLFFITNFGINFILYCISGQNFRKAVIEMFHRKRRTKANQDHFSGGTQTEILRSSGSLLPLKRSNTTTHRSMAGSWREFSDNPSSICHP", "experiment": "Receptor activation, aequorin luminescence in CHO-K1 aeq cells expressing AeCNMaR-1a", "type": "cell-based", "excerpt": "The CNMa peptide was synthesized and HPLC purified (>90% purity) by Royobiotechs (Shanghai, China) based on the published sequence of the AeCNMa peptide sequence. Both the amidated (YMSLCHFKLCNMa) and the non-amidated (YMSLCHFKLCNM) were produced with a disulfide bridge between cysteines 5 and 10. The complete coding sequence of the two putative Ae. aegypti CNMa receptors (VectorBase genes AAEL024199 and AAEL018316, which we henceforth refer to as AeCNMaR-1a and AeCNMaR-1b, respectively) were commercially synthesized (Integrated DNA Technologies) and subsequently subcloned into a pcDNA3.1+ mammalian expression vector [24]. A Chinese hamster ovary cell line stably expressing the calcium-dependent bioluminescent protein aequorin (CHO-K1 aeq) was grown in Dulbecco’s modified eagles medium: nutrient F12 (DMEM:F12) media containing 10% heat-inactivated fetal bovine serum (FBS; Wisent, St. Bruno, QC, Canada), 200 μg/mL geneticin, and an antimycotic-antibiotic mixture as described previously. When cells reached 80–90% confluency, they were transfected using Lipofectamine 3000 transfection reagent following manufacturer recommendations (Life Technologies, Burlington, ON, Canada) to transiently express a mammalian construct in pcDNA3.1+ containing either of the two candidate CNMa receptors or mCherry (pcDNA3.1+ mCherry was a gift from Scott Gradia, Addgene plasmid #30125), the latter of which served as a negative control for the receptor functional assay. After 48 h following transfection, CHO-K1 aeq cells were harvested by dislodging from culture flasks using Dulbecco’s PBS containing EDTA and subsequently resuspended in receptor assay media.\nOther Ae. aegypti peptides used in this study included “capability” (CAPA)-1 (GPTVGLFAFPRV-NH2), CAPA-2 (pQGLVPFPRV-NH2), AedaeCAPA-pyrokinin (PK) 1 (AGNSGANSGMWFGPRL-NH2), adipokinetic/corazonin-like peptide (ACP; pQVTFSRDWNA-NH2), adipokinetic hormone (AKH) (pQLTFTPSW-NH2), and corazonin (CRZ; pQTFQYSRGWTN-NH2). Serial dilutions of the peptide stocks were prepared in bovine serum albumin (BSA) assay media (DMEM:F12 media + 0.1% BSA + 1× antibiotic-antimycotic) to test concentrations ranging from 10 pM to 50 μM. Single concentrations of the various peptides were loaded into individual wells of white 96-well luminescence plates (Greiner Bio-One, Frickenhausen, Germany) with each peptide concentration tested in quadruplicate. CHO-K1 aeq cells expressing either of the two AeCNMa receptors or mCherry were prepared for the functional assay, as described above, and injected into each well of the 96-well luminescence plates by an automated injector unit integrated with the Synergy 2 Multi-Mode Microplate Reader (BioTek, Winooski, VT, USA). The kinetic luminescent response was measured for 10 s immediately following the application of the cells into the wells containing the different peptide treatments or the negative (i.e., BSA media alone) or positive (i.e., 50 μM ATP) controls as described previously. Data was assembled in Microsoft Excel and then analyzed in GraphPad Prism 7.02 (GraphPad Software, San Diego, CA, USA) where the dose–response curves from multiple biological replicates were used to determine the half maximal effective concentrations (EC50)."}, "[2]": {"target": "AeCNMaR-1b (AAEL018316) (Aedes aegypti, UniProt A0A1S4G7J8)", "sequence (A0A1S4G7J8 entry or part of it)": "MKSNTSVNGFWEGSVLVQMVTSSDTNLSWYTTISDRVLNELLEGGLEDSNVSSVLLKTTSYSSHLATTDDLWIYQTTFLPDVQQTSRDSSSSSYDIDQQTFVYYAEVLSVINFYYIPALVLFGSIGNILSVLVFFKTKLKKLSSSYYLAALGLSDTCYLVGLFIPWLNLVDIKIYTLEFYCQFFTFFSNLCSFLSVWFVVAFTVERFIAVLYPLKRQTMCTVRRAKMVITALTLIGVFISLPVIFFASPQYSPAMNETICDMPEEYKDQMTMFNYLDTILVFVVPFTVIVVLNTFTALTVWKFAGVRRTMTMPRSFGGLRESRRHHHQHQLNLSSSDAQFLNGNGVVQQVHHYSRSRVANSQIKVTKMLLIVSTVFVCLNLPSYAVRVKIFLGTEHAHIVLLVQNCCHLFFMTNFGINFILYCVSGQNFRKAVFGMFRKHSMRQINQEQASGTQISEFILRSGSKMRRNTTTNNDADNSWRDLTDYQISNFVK", "experiment": "Receptor activation, aequorin luminescence in CHO-K1 aeq cells expressing AeCNMaR-1b", "type": "cell-based", "excerpt": "The CNMa peptide was synthesized and HPLC purified (>90% purity) by Royobiotechs (Shanghai, China) based on the published sequence of the AeCNMa peptide sequence. Both the amidated (YMSLCHFKLCNMa) and the non-amidated (YMSLCHFKLCNM) were produced with a disulfide bridge between cysteines 5 and 10. The complete coding sequence of the two putative Ae. aegypti CNMa receptors (VectorBase genes AAEL024199 and AAEL018316, which we henceforth refer to as AeCNMaR-1a and AeCNMaR-1b, respectively) were commercially synthesized (Integrated DNA Technologies) and subsequently subcloned into a pcDNA3.1+ mammalian expression vector [24]. A Chinese hamster ovary cell line stably expressing the calcium-dependent bioluminescent protein aequorin (CHO-K1 aeq) was grown in Dulbecco’s modified eagles medium: nutrient F12 (DMEM:F12) media containing 10% heat-inactivated fetal bovine serum (FBS; Wisent, St. Bruno, QC, Canada), 200 μg/mL geneticin, and an antimycotic-antibiotic mixture as described previously. […]\nOther Ae. aegypti peptides used in this study included “capability” (CAPA)-1 (GPTVGLFAFPRV-NH2), CAPA-2 (pQGLVPFPRV-NH2), AedaeCAPA-pyrokinin (PK) 1 (AGNSGANSGMWFGPRL-NH2), adipokinetic/corazonin-like peptide (ACP; pQVTFSRDWNA-NH2), adipokinetic hormone (AKH) (pQLTFTPSW-NH2), and corazonin (CRZ; pQTFQYSRGWTN-NH2). […] Single concentrations of the various peptides were loaded into individual wells of white 96-well luminescence plates (Greiner Bio-One, Frickenhausen, Germany) with each peptide concentration tested in quadruplicate. CHO-K1 aeq cells expressing either of the two AeCNMa receptors or mCherry were prepared for the functional assay, as described above, and injected into each well of the 96-well luminescence plates by an automated injector unit integrated with the Synergy 2 Multi-Mode Microplate Reader (BioTek, Winooski, VT, USA). The kinetic luminescent response was measured for 10 s immediately following the application of the cells into the wells containing the different peptide treatments or the negative (i.e., BSA media alone) or positive (i.e., 50 μM ATP) controls as described previously. Data was assembled in Microsoft Excel and then analyzed in GraphPad Prism 7.02 (GraphPad Software, San Diego, CA, USA) where the dose–response curves from multiple biological replicates were used to determine the half maximal effective concentrations (EC50)."}}, "note": "pEC50: −log10 of the molar value. Positions of bridges follow the written chain, without caps; N, C: chain ends. Residues, ends and D or L forms follow the SMILES beside them.", "data": [{"smiles": "CSCC[C@H](NC(=O)[C@H](CC(N)=O)NC(=O)[C@@H]1CSSC[C@H](NC(=O)[C@H](CC(C)C)NC(=O)[C@H](CO)NC(=O)[C@H](CCSC)NC(=O)[C@@H](N)Cc2ccc(O)cc2)C(=O)N[C@@H](Cc2c[nH]cn2)C(=O)N[C@@H](Cc2ccccc2)C(=O)N[C@@H](CCCCN)C(=O)N[C@@H](CC(C)C)C(=O)N1)C(=O)O", "note": "[AeCNM, YMSLCHFKLCNM] (H-YMSLCHFKLCNM-OH; disulfide 5-10)", "values": [{"measurement": "pEC50", "setting": "[1]", "result": 7.33}, {"measurement": "pEC50", "setting": "[2]", "result": 6.90}]}]}
